Measurements published in patent US4081533A, “Method of reducing mammalian fertility and drugs therefor” (Regents of the University of California, priority 1976, dated 1978).
Entries after “also recorded” stand apart in the source; their conditions may differ. Counter-ions that a name gives are not always drawn. Like-named read-outs stand apart in the source and are kept apart here. Positions of bridges follow the written chain, without caps; N, C: chain ends. Residues, ends and D or L forms follow the SMILES beside them.

Columns and labels:
[1] = system: ovulation; assay: Ovulation in proestrus rats (ova flushed from oviducts and counted); format: in vivo, rat
Description: (§1) These subjects were administered various dosages of the peptides of the invention as well as control materials, i.e., saline solution alone, and the naturally occuring peptides, vasopressin and oxytocin, that are related to the cyclic nonapeptide, 8-arginine vasotocin. Both vasopressin and oxytocin are well documented in the literature. Vasopressin is very closely related to 8-arginine vastocin, and has the cyclic nonapeptide structure: [drawing 2] wherein the 3rd amino acid moiety is phenylalanine rather than isoleucine that occurs in the 8-arginine vasotocin. In all other respects the vasopressin peptide chain is identical to 8-arginine vasotocin. Vasopressin is found in the posterior lobe of the pituitary gland.
(§2) More specifically, in normal cycling female rats there is a dramatic surge in the level of luteinizing hormone (LH) in the blood on the afternoon of proestrus. This surge of LH can be detected by monitoring periodic blood samples. These samples are secured by inserting a cannula into the right atrium of the heart. 50 microliters of blood are withdrawn each hour for some 6 to 7 samples. The levels of LH therein is determined using radioimmunossay techniques. Under normal circumstances, ovulation occurs about 12 hours later. The oviducts are then removed and the ova are recovered therefrom by inserting a hypodermic into the tubal ostium and flushing with phosphate-buffered saline. Freed ova are collected in a micropipette and counted. In the tests, the normal cycling rats were administered both control saline, and various dosages of 8-arginine vasotocin, prolyl-arginyl-glycinamide, prolyl-lysyl-glycinamide, vasopressin and oxytocin.
(§3) In every instance, the peptide dosage was administered in saline via heart cannula at one hour intervals over a 4 hour period.

[2] = system: Pre-Ovulatory Surge of Prolactin; assay: Pre-ovulatory surge of prolactin in rats; format: in vivo, rat; details: for Inhibitory effect on prolactin surge (in words): summary of Table II
Description: 8-arginine vasotocin, vasopressin, and oxytocin were administered at various dosage levels and rates to a number of rats. Saline solution was utilized as a control.

[3] = system: preovulatory surge of LH; assay: Pre-ovulatory LH surge in proestrus rats (hourly blood samples, radioimmunoassay); format: in vivo, rat; details: for LH surge and ovulation inhibitory effect (in words): administered prior to ovulation, rats
Description: as §1, §2, §3

[4] = rat, in vivo
Description: The level of nonapeptide or tripeptide in the body fluids necessary to inhibit the LH surge and subsequent ovulation will vary from species to species and from individual to individual. In this regard, however, the nonapeptide does appear to have at least 50-100 times the activity, on a weight basis, of the tripeptide. Therefore, effective dosage levels of the tripeptides are necessarily higher than the nonapeptides, by as much as two or three orders of magnitude. On the other hand, the tripeptide, being a much simpler molecular, is more easily metabolized, and the higher dosage requirements are easily tolerated and produce no side effects. […] A technique similar to that disclosed herein for the synthesis of the tripeptide may be utilized; although it will be recognized that the production of a nine membered peptide will be considerably more costly and time consuming that the production of the tripeptide. But such synthesis techniques are available to secure the 8-arginine vasotocin utilized in the present invention.

[5] = reason given for unsuitability in the method; cited from earlier work
[6] = proestrus rats, dosage 0.1 μg in saline via heart cannula at one hour intervals over a 4 hour period, acetate salt
[7] = proestrus rats, dosage 1.0 μg in saline via heart cannula at one hour intervals over a 4 hour period, acetate salt
[8] = dosage 1μg/120 min, total dose 2 μg
[9] = dosage 1μ/30 min, total dose 7 μg
[10] = proestrus rats, dosage 0.6 mg in saline via heart cannula at one hour intervals over a 4 hour period, acetate salt
[11] = dihydrochloride form, dosage 1 μg, same conditions as Table I
[12] = proestrus rats, dosage 5.0 μg in saline via heart cannula at one hour intervals over a 4 hour period, acetate salt

| Compound | Presence of Ova (%) [1, 6] [%] | Presence of Ova (%) [1, 7] [%] | Presence of Prolactin Surge (%) [2, 8] [%] | Presence of Prolactin Surge (%) [2, 9] [%] | Inhibitory effect on prolactin surge (in words) [2] | LH surge and ovulation inhibitory effect (in words) [3] | Presence of LH Surges (%) [3, 6] [%] | Presence of LH Surges (%) [3, 7] [%] | Presence of Ova (%) [1, 10] [%] | Presence of LH Surges (%) [3, 10] [%] | other results |
| --- | --- | --- | --- | --- | --- | --- | --- | --- | --- | --- | --- |
| CC[C@H](C)[C@@H]1NC(=O)[C@H](Cc2ccc(O)cc2)NC(=O)[C@@H](N)CSSC[C@@H](C(=O)N2CCC[C@H]2C(=O)N[C@@H](CCCNC(=N)N)C(=O)NCC(N)=O)NC(=O)[C@H](CC(N)=O)NC(=O)[C@H](CCC(N)=O)NC1=O [8-arginine-Vasotocin, 8-arginine vasotocin] (H-CYIQNCPRG-NH2; disulfide 1-6) | 45 | 22 | 0 | 4 | high inhibitory effect | effectively blocked | 34 | 5 |  |  | Presence of Prolactin Surge (%) ([2]; dosage 1μg/240 min, total dose 5 μg): 80%; Presence of Prolactin Surge (%) ([2]; dosage 1μ/60 min, total dose 4 μg): 14%; Effect on basal levels of luteinizing hormone in the blood ([3]; basal LH, not the surge): does not appear to suppress the basal levels; Activity of the nonapeptide relative to the tripeptide ([3]; on a weight basis): 50-100 times |
| N=C(N)NCCC[C@H](NC(=O)[C@@H]1CCCN1)C(=O)NCC(N)=O [Prolyl-arginyl-glycinamide, prolyl-arginyl-glycinamide] (H-Pro-Arg-Gly-NH2) |  |  |  |  |  | exhibits a similar luteinizing hormone suppressing effect that also inhibits ovulation; also recorded: high inhibition of the LH surge and ovulation |  |  | 42 | 25 | Side effects [4]: no noticable side effects |
| NC(=O)CC[C@@H]1NC(=O)[C@H](Cc2ccccc2)NC(=O)[C@H](Cc2ccc(O)cc2)NC(=O)[C@@H](N)CSSC[C@@H](C(=O)N2CCC[C@H]2C(=O)N[C@@H](CCCN=C(N)N)C(=O)NCC(N)=O)NC(=O)[C@H](CC(N)=O)NC1=O [Vasopressin, reference compound] | 94 | 62 | 57 | 17 | a lesser effect | considerable activity | 94 | 37 |  |  | Side effects [5]: severe vasocontrictive side effects |
| NCCCC[C@H](NC(=O)[C@@H]1CCCN1)C(=O)NCC(N)=O [Prolyl-lysyl-glycinamide, prolyl-lysyl-glycinamide] (H-Pro-Lys-Gly-NH2) |  |  |  |  |  |  |  |  | 30 | 15 | LH surge and ovulation inhibitory effect (in words) ([3]; listed as Prolyl-Lysyl-Glycinamide): exhibits luteinizing hormone suppressing and anovulatory properties; LH surge and ovulation inhibitory effect (in words) ([3]; listed as prolyl-lysyl-glycinamide): high inhibition of the LH surge and ovulation |
| CC[C@H](C)[C@@H]1NC(=O)[C@H](Cc2ccc(O)cc2)NC(=O)[C@@H](N)CSSC[C@@H](C(=O)N2CCC[C@H]2C(=O)N[C@@H](CCCNC(=N)N)C(=O)NCC(N)=O)NC(=O)[C@H](CC(N)=O)NC(=O)[C@H](CCC(N)=O)NC1=O [8-arginine vasotocin-dihydrochloride] (H-CYIQNCPRG-NH2; disulfide 1-6) |  |  |  |  |  |  |  |  |  |  | Presence of Ova (%) [1, 11]: 20%; Presence of LH Surges (%) [3, 11]: 0% |
| CC[C@H](C)[C@@H]1NC(=O)[C@H](Cc2ccc(O)cc2)NC(=O)[C@@H](N)CSSC[C@@H](C(=O)N2CCC[C@H]2C(=O)N[C@@H](CC(C)C)C(=O)NCC(N)=O)NC(=O)[C@H](CC(N)=O)NC(=O)[C@H](CCC(N)=O)NC1=O [Oxytocin, reference compound] |  | 100 | 84 | 60 | the lowest effect | essentially inactive |  | 100 |  |  | Presence of Ova (%) [1, 12]: 94%; Presence of LH Surges (%) [3, 12]: 94% |
